The values below come from ChEMBL document CHEMBL1201862, “PubChem BioAssay data set” (2004).

Among the test systems are A498; ACHN; CCRF-CEM; HCC 2998; HOP-62; Hs-578T; KM12; MDA-MB-435; NCI-H226; NCI-H23; NCI-H522; NCI/ADR-RES; OVCAR-3; PC-3; RPMI-8226; SF-268; TK-10; U-251; UO-31; MOLT-4.
Common to all, as to assay: NCI anticancer screen, dose series, 48 h

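These data come from cells grown in 96-well plates and exposed to compound for 48 hours at five concentrations. Here, GI50 denotes the concentration required for 50% inhibition of growth.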 Activity calls are given as the source filed them. No stated cut-off is given here; in the data, active = GI50 up to about 1.1 µM and inactive = higher.

Regarding `CC(=O)Nc1c(C)cc(OCC(=O)O)cc1C`, the GI50 in the test on A498, with ACHN, with CCRF-CEM, in the test on HCC 2998, with HOP-62 and with Hs-578T was > 100 µM (inactive) in each case. In addition, the GI50 in the test on KM12, in the test with MDA-MB-435, in the test on NCI-H226, in the test with NCI-H23, in the test with NCI-H522 and in the test on NCI/ADR-RES was > 100 µM (inactive) throughout. In addition, the GI50 in the test with OVCAR-3, in the test with PC-3, in the test with RPMI-8226, with SF-268, in the test with TK-10 and in the test on U-251 was > 100 µM (inactive) throughout. For the same compound, in the test on UO-31, the GI50 was > 100 µM (inactive).
`O=c1c2cc(-c3ccccc3)sc2nc2n1N=C(c1ccc(Cl)cc1)CS2`: the GI50 in the test with A498, in the test on ACHN, in the test on CCRF-CEM, in the test on HCC 2998, with HOP-62 and with Hs-578T was > 100 µM (inactive) each time. Further, the GI50 in the test on KM12, in the test with MDA-MB-435, in the test with MOLT-4, with NCI-H226, in the test with NCI-H23 and in the test on NCI-H522 was > 100 µM (inactive) in each case. Besides, the GI50 in the test on NCI/ADR-RES, in the test with OVCAR-3, in the test on PC-3, in the test on RPMI-8226, in the test on SF-268 and in the test on TK-10 was > 100 µM (inactive) each time. For the same compound, the GI50 with U-251 and in the test on UO-31 was > 100 µM (inactive) in each case.
As to `COC(=O)[C@H](CCSC)NC(=O)N[C@H](C)c1ccccc1`, the GI50 in the test on A498, in the test on ACHN, in the test with CCRF-CEM, with HCC 2998, in the test on HOP-62 and in the test with Hs-578T was > 100 µM (inactive) each time. The GI50 was > 100 µM (inactive) in the test with KM12; > 100 µM (inactive) in the test with MDA-MB-435; > 100 µM (inactive) in the test with MOLT-4; > 100 µM (inactive) with NCI-H226; > 100 µM (inactive) with NCI-H23; 26.1 µM (inactive) in the test on NCI-H522. Also, the GI50 in the test on NCI/ADR-RES is 60.7 µM (inactive); with OVCAR-3, > 100 µM (inactive); with PC-3, > 100 µM (inactive); in the test with RPMI-8226, > 100 µM (inactive); in the test with SF-268, > 100 µM (inactive); in the test with TK-10, > 100 µM (inactive). Also, the GI50 in the test on U-251 and with UO-31 was > 100 µM (inactive) in each case.
Consider `O=C1Nc2ccc(Br)cc2/C1=N/S(=O)(=O)O`, for which the GI50 in the test with A498 was > 100 µM (inactive); in the test on ACHN, 45.9 µM (inactive); in the test on CCRF-CEM, 6.85 µM (inactive); with HCC 2998, 51.3 µM (inactive); in the test on HOP-62, 60.5 µM (inactive); with Hs-578T, > 100 µM (inactive). For the same compound, the GI50 with KM12 is 28.4 µM (inactive); with MDA-MB-435, 6.38 µM (inactive); in the test on MOLT-4, 22 µM (inactive); in the test with NCI-H226, 28.4 µM (inactive); with NCI-H23, 19.6 µM (inactive); in the test with NCI-H522 it was 31.3 µM (inactive). Moreover, the GI50 is 29.4 µM (inactive) in the test on NCI/ADR-RES; 40.7 µM (inactive) in the test on OVCAR-3; 13.3 µM (inactive) with PC-3; 14.1 µM (inactive) in the test on RPMI-8226; 62.8 µM (inactive) in the test with SF-268; 14.5 µM (inactive) in the test on TK-10. Also, the GI50 is 13.6 µM (inactive) in the test with U-251 and 35 µM (inactive) in the test on UO-31.
For `NNC(=O)C(O)C(O)C(=O)NN` (centres undefined), the GI50 with A498, in the test with ACHN, in the test with CCRF-CEM, in the test with HCC 2998, in the test with HOP-62 and in the test with Hs-578T was > 100 µM (inactive) throughout. Further, the GI50 in the test with KM12 is > 100 µM (inactive); in the test with MDA-MB-435 it was > 100 µM (inactive); in the test on MOLT-4, 64.3 µM (inactive); in the test on NCI-H226, > 100 µM (inactive); with NCI-H23, > 100 µM (inactive); in the test with NCI-H522, 54.5 µM (inactive). The GI50 in the test on NCI/ADR-RES, with OVCAR-3, in the test with PC-3, in the test with RPMI-8226, with SF-268 and in the test with TK-10 was > 100 µM (inactive) throughout. Further, the GI50 in the test on U-251 and with UO-31 was > 100 µM (inactive) throughout.
Consider `C=CC(Cl)(CBr)CCC(Br)=C(C)C` (centres undefined), for which the GI50 in the test with A498 is > 100 µM (inactive); in the test with ACHN, 21.6 µM (inactive); in the test with CCRF-CEM, 26 µM (inactive); in the test with HCC 2998 it was 23.6 µM (inactive); in the test with HOP-62 it was > 100 µM (inactive); with Hs-578T, 28.2 µM (inactive). For the same compound, the GI50 was 20.2 µM (inactive) in the test with KM12; 20.4 µM (inactive) in the test on MDA-MB-435; > 100 µM (inactive) in the test with MOLT-4; 44.8 µM (inactive) in the test on NCI-H226; 25.9 µM (inactive) with NCI-H23; 16.9 µM (inactive) in the test on NCI-H522. The GI50 with NCI/ADR-RES is 28.8 µM (inactive); with OVCAR-3, 24.5 µM (inactive); with PC-3, 21.3 µM (inactive); in the test with RPMI-8226 it was 21.1 µM (inactive); in the test on SF-268, 21 µM (inactive); with TK-10, 26.3 µM (inactive). For the same compound, the GI50 with U-251 was 16.9 µM (inactive); with UO-31, 18.8 µM (inactive).
On to `O=C1c2ccccc2C(=O)c2c1ccc1c3ccccc3n(-c3ccccc3)c21`, for which the GI50 was 46 µM (inactive) with A498; 17.3 µM (inactive) in the test on ACHN; 2.85 µM (inactive) with CCRF-CEM; 46.6 µM (inactive) in the test with HCC 2998; 49.5 µM (inactive) with HOP-62; 15 µM (inactive) in the test on Hs-578T. The GI50 in the test with KM12 is 29.2 µM (inactive); in the test with MDA-MB-435 it was 9.31 µM (inactive); with MOLT-4, 2.3 µM (inactive); in the test on NCI-H226, 26.1 µM (inactive); with NCI-H23, 15.4 µM (inactive); in the test with NCI-H522, 15.4 µM (inactive). Further, the GI50 is 39.7 µM (inactive) in the test on NCI/ADR-RES; 19.5 µM (inactive) with OVCAR-3; 28.1 µM (inactive) in the test on PC-3; 7.24 µM (inactive) with RPMI-8226; 23 µM (inactive) with SF-268; 40.8 µM (inactive) with TK-10. For the same compound, the results for the GI50 in the test with U-251 and in the test on UO-31 were 32.7 µM (inactive) and 21.3 µM (inactive), respectively.
In the case of `O=c1[nH]cc(/N=C/c2cc(Cl)cc(Cl)c2O)c(=O)[nH]1`, the GI50 with A498 was > 100 µM (inactive); with ACHN, 36.3 µM (inactive); with CCRF-CEM, 20 µM (inactive); with HCC 2998, 33.3 µM (inactive); with HOP-62, 26.1 µM (inactive); with Hs-578T, 21.4 µM (inactive). The GI50 is 24.2 µM (inactive) with KM12; 23.5 µM (inactive) in the test with MDA-MB-435; 21.9 µM (inactive) in the test with MOLT-4; 23.4 µM (inactive) in the test on NCI-H226; 24.6 µM (inactive) with NCI-H23; 21.5 µM (inactive) with NCI-H522. For the same compound, the GI50 was 21.8 µM (inactive) in the test on NCI/ADR-RES; 17.7 µM (inactive) in the test on OVCAR-3; 27.8 µM (inactive) in the test with PC-3; 22.1 µM (inactive) in the test with RPMI-8226; 14.2 µM (inactive) in the test on SF-268; > 100 µM (inactive) in the test with TK-10. Moreover, the GI50 in the test with U-251 was 32.7 µM (inactive); with UO-31, 29.5 µM (inactive).
With `CN(C)CCNC(=O)c1cccc2nc3c(nc12)-c1ccccc1C3=O`, the GI50 is 14.4 µM (inactive) with A498; 4.78 µM (inactive) in the test with ACHN; 2.56 µM (inactive) with CCRF-CEM; 15 µM (inactive) in the test with HCC 2998; 6.17 µM (inactive) with HOP-62; 18.5 µM (inactive) in the test on Hs-578T. Also, the GI50 with KM12 was 10 µM (inactive); in the test with MDA-MB-435, 14.8 µM (inactive); in the test with MOLT-4 it was 0.721 µM (active); in the test on NCI-H226, 14.4 µM (inactive); with NCI-H23 it was 13.3 µM (inactive); in the test with NCI-H522, 13.5 µM (inactive). For the same compound, the GI50 in the test with NCI/ADR-RES is 12.4 µM (inactive); in the test with OVCAR-3, 16.6 µM (inactive); with PC-3, 17.6 µM (inactive); in the test on RPMI-8226, 7.38 µM (inactive); with SF-268, 11.8 µM (inactive); in the test with TK-10 it was 18.6 µM (inactive). Also, the GI50 in the test on U-251 is 13.4 µM (inactive); in the test on UO-31, 12.1 µM (inactive).
With `CCO[C@H]1O[C@@H]2OC3(C)CCC4[C@H](C)CCC([C@H]1C)[C@]42OO3` (some centres undefined), the GI50 with A498 was > 100 µM (inactive); in the test on ACHN it was 32.2 µM (inactive); with CCRF-CEM it was 3.44 µM (inactive); with HCC 2998 it was 97.1 µM (inactive); in the test with HOP-62 it was > 100 µM (inactive); in the test with Hs-578T it was 29.9 µM (inactive). Also, the GI50 in the test with KM12 is > 53.2 µM (inactive); in the test on MDA-MB-435, 19.1 µM (inactive); in the test with MOLT-4, 7.91 µM (inactive); with NCI-H226, > 100 µM (inactive); in the test on NCI-H23, 32.1 µM (inactive); in the test with NCI-H522 it was 43.5 µM (inactive). Also, the GI50 with NCI/ADR-RES is 23 µM (inactive); in the test on OVCAR-3, 15.5 µM (inactive); in the test with PC-3, 0.729 µM (active); in the test with RPMI-8226, 3.3 µM (inactive); in the test with SF-268 it was > 100 µM (inactive); in the test with TK-10, > 95.5 µM (inactive). For the same compound, the GI50 was 42.7 µM (inactive) in the test with U-251 and 15.4 µM (inactive) in the test on UO-31.
